What follows are compounds tested against recombinant human NUDT5 (Homo sapiens, UniProt Q9UKK9) (assay: NUDT5 inhibitor activity by malachite green reporter assay). Settings: Table 3; 6 nM NUDT5, 50 μM ADP-Ribose, 15 minutes at room temperature.
Type: biochemical
Method in brief: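 Coupled ADP-ribose hydrolysis in 10 mM Tris-acetate pH 8.0, 40 mM NaCl, 10 mM Mg acetate, 0.005% Tween-20, 1 mM DTT: 6 nM NUDT5, 50 μM ADP-Ribose, 10 U/ml alkaline phosphatase, 15 min at room temperature. Pi read by malachite green at 630 nm; compounds 100 μM–1.7 nM, 3-fold; IC50 by curve fit.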

SMILES | IC50
CCSc1nc2c(c(=O)n(C)c(=O)n2C)n1Cc1nnc(-c2ccc(Cl)c(Cl)c2)o1 [Example 6, 7-{[5-(3,4-dichlorophenyl)-1,3,4-oxadiazol-2-yl]methyl}-8-(ethylsulfanyl)-1,3-dimethyl-2,3,6,7-tetrahydro-1H-purine-2,6-dione] | 36.9 nM
C[C@H]1CN(c2nc3c(c(=O)n(C)c(=O)n3C)n2Cc2nnc(-c3ccc(Cl)c(Cl)c3)o2)CCN1 [Example 46, 7-{[5-(3,4-dichlorophenyl)-1,3,4-oxadiazol-2-yl]methyl}-1,3-dimethyl-8-[(3S)-3-methylpiperazin-1-yl]-2,3,6,7-tetrahydro-1H-purine-2,6-dione] | 12 nM
Cc1cccc(-c2nnc(Cn3c(NCc4ccccc4)nc4c3c(=O)n(C)c(=O)n4C)o2)c1 [Example 50, 8-(benzylamino)-1,3-dimethyl-7-{[5-(3-methylphenyl)-1,3,4-oxadiazo-2-yl]methyl}-2,3,6,7-tetrahydro-1H-purine-2,6-dione] | 144 nM
CCCc1nc2c(c(=O)n(C)c(=O)n2C)n1Cc1nnc(-c2ccc(Cl)c(Cl)c2)o1 [Example 61, 7-{[5-(3,4-dichlorophenyl)-1,3,4-oxadiazol-2-yl]methyl}-1,3-dimethyl-8-propyl-2,3,6,7-tetrahydro-1H-purine-2,6-dione] | 246 nM
Cn1c(=O)c2c(nc(SC3CCCCC3)n2Cc2nnc(-c3ccc(Cl)c(Cl)c3)o2)n(C)c1=O [Example 7, 8-(cyclohexylsulfanyl)-7-{[5-(3,4-dichlorophenyl)-1,3,4-oxadiazol-2-yl]methyl}-1,3-dimethyl-2,3,6,7-tetrahydro-1H-purine-2,6-dione] | 65.9 nM
COc1nc2c(c(=O)n(C)c(=O)n2C)n1Cc1nnc(-c2cccc(C)c2)o1 [Example 52, 8-methoxy-1,3-dimethyl-7-{[5-(3-methylphenyl)-1,3,4-oxadiazol-2-yl]methyl}-2,3,6,7-tetrahydro-1H-purine-2,6-dione] | 378 nM
Cn1c(=O)c2c(nc(S(=O)(=O)C3CCCCC3)n2Cc2nnc(-c3ccc(Cl)c(Cl)c3)o2)n(C)c1=O [Example 24, 8-(cyclohexanesulfonyl)-7-{[5-(3,4-dichlorophenyl)-1,3,4-oxadiazol-2-yl]methyl}-1,3-dimethyl-2,3,6,7-tetrahydro-1H-purine-2,6-dione] | 22.7 nM
Cn1c(=O)c2c(nc(N3CC(NC(=O)OC(C)(C)C)C3)n2Cc2nnc(-c3ccc(Cl)c(Cl)c3)o2)n(C)c1=O [Example 26, tert-butyl N-[1-(7-{[5-(3,4-dichlorophenyl)-1,3,4-oxadiazol-2-yl]methyl}-1,3-dimethyl-2,6-dioxo-2,3,6,7-tetrahydro-1H-purin-8-yl)azetidin-3-yl]carbamate] | 324 nM
CN1CCN(c2nc3c(c(=O)n(C)c(=O)n3C)n2Cc2nnc(-c3ccc(Cl)c(Cl)c3)o2)CC1 [Example 18, 7-{[5-(3,4-dichlorophenyl)-1,3,4-oxadiazol-2-yl]methyl}-1,3-dimethyl-8-(4-methylpiperazin-1-yl)-2,3,6,7-tetrahydro-1H-purine-2,6-dione] | 151 nM
Cn1c(=O)c2c(nc(N3CCOCC3)n2Cc2nnc(-c3ccc(Cl)c(Cl)c3)o2)n(C)c1=O [Example 13, 7-{[5-(3,4-dichlorophenyl)-1,3,4-oxadiazol-2-yl]methyl}-1,3-dimethyl-8-(morpholin-4-yl)-2,3,6,7-tetrahydro-1H-purine-2,6-dione] | 759 nM
Cn1c(=O)c2c(nc(N3CCC(O)C3)n2Cc2nnc(-c3ccc(Cl)c(Cl)c3)o2)n(C)c1=O (centres unmarked) [Example 34, 7-{[5-(3,4-dichlorophenyl)-1,3,4-oxadiazol-2-yl]methyl}-8-(3-hydroxypyrrolidin-1-yl)-1,3-dimethyl-2,3,6,7-tetrahydro-1H-purine-2,6-dione] | 24.7 nM
Cn1c(=O)c2c(nc(N3CCCNCC3)n2Cc2nnc(-c3ccc(Cl)c(Cl)c3)o2)n(C)c1=O [Example 27, 8-(1,4-diazepan-1-yl)-7-{[5-(3,4-dichlorophenyl)-1,3,4-oxadiazol-2-yl]methyl}-1,3-dimethyl-2,3,6,7-tetrahydro-1H-purine-2,6-dione] | 19.3 nM
COC(=O)C1CCN(c2nc3c(c(=O)n(C)c(=O)n3C)n2Cc2nnc(-c3ccc(Cl)c(Cl)c3)o2)CC1 [Example 39, methyl 1-(7-{[5-(3,4-dichlorophenyl)-1,3,4-oxadiazol-2-yl]methyl}-1,3-dimethyl-2,6-dioxo-2,3,6,7-tetrahydro-1H-purin-8-yl)piperidine-4-carboxylate] | 32.7 nM
C=CCN(CC=C)c1nc2c(c(=O)n(C)c(=O)n2C)n1Cc1nnc(-c2ccc(Cl)c(Cl)c2)o1 [Example 8, 8-[bis(prop-2-en-1-yl)amino]-7-{[5-(3,4-dichlorophenyl)-1,3,4-oxadiazol-2-yl]methyl}-1,3-dimethyl-2,3,6,7-tetrahydro-1H-purine-2,6-dione] | 162 nM

Same assay, conditions: Table 4; 6 nM NUDT5, 50 μM ADP-Ribose, 15 minutes at room temperature

SMILES | IC50
Cn1c(=O)c2c(nc(Cl)n2Cc2nnc(-c3ccccc3)o2)n(C)c1=O [Example 88, 8-chloro-1,3-dimethyl-7-[(5-phenyl-1,3,4-oxadiazol-2-yl)methyl]-2,3,6,7-tetrahydro-1H-purine-2,6-dione] | 3590 nM
COc1cc(-c2nnc(Cn3c(N4CC[C@@H](N(C)C)C4)nc4c3c(=O)n(C)c(=O)n4C)o2)ccc1C [Example 139, 8-[(3R)-3-(dimethylamino)pyrrolidin-1-yl]-7-{[5-(3-methoxy-4-methylphenyl)-1,3,4-oxadiazol-2-yl]methyl}-1,3-dimethyl-2,3,6,7-tetrahydro-1H-purine-2,6-dione] | 265 nM
Cn1c(=O)c2c(nc(N3CCNCC3)n2Cc2nnc(-c3ccc(C(F)(F)F)cc3)o2)n(C)c1=O [Example 121, 1,3-dimethyl-8-(piperazin-1-yl)-7-({5-[4-(trifluoromethyl)phenyl]-1,3,4-oxadiazol-2-yl}methyl)-2,3,6,7-tetrahydro-1H-purine-2,6-dione] | 51.6 nM
COc1cc(-c2nnc(Cn3c(N4CCC(N(C)C)CC4)nc4c3c(=O)n(C)c(=O)n4C)o2)ccc1C [Example 126, 8-[4-(dimethylamino)piperidin-1-yl]-7-{[5-(3-methoxy-4-methylphenyl)-1,3,4-oxadiazol-2-yl]methyl}-1,3-dimethyl-2,3,6,7-tetrahydro-1H-purine-2,6-dione] | 39.1 nM
Cn1c(=O)c2c(nc(N3CCNCC3)n2Cc2nnc(-c3ccc(F)cc3)o2)n(C)c1=O [Example 109, 7-{[5-(4-fluorophenyl)-1,3,4-oxadiazol-2-yl]methyl}-1,3-dimethyl-8-(piperazin-1-yl)-2,3,6,7-tetrahydro-1H-purine-2,6-dione] | 345 nM
COc1ccc(-c2nnc(Cn3c(N4CCNCC4)nc4c3c(=O)n(C)c(=O)n4C)o2)cc1Cl [Example 118, 7-{[5-(3-chloro-4-methoxyphenyl)-1,3,4-oxadiazol-2-yl]methyl}-1,3-dimethyl-8-(piperazin-1-yl)-2,3,6,7-tetrahydro-1H-purine-2,6-dione] | 17.4 nM
Cc1ccc(-c2nnc(Cn3c(Cl)nc4c3c(=O)n(C)c(=O)n4C)o2)cn1 [Example 106, 8-chloro-1,3-dimethyl-7-{[5-(6-methylpyridin-3-yl)-1,3,4-oxadiazol-2-yl]methyl}-2,3,6,7-tetrahydro-1H-purine-2,6-dione] | 2920 nM
Cn1c(=O)c2c(nc(Cl)n2Cc2coc(-c3ccc(Cl)c(Cl)c3)n2)n(C)c1=O [Example 71, 8-chloro-7-{[2-(3,4-dichlorophenyl)-1,3-oxazol-4-yl]methyl}-1,3-dimethyl-2,3,6,7-tetrahydro-1H-purine-2,6-dione] | 81.6 nM
COc1cc(-c2nnc(Cn3c(SCCNC(=O)OC(C)(C)C)nc4c3c(=O)n(C)c(=O)n4C)o2)ccc1C [Example 140, tert-butyl N-{2-[(7-{[5-(3-methoxy-4-methylphenyl)-1,3,4-oxadiazol-2-yl]methyl}-1,3-dimethyl-2,6-dioxo-2,3,6,7-tetrahydro-1H-purin-8-yl)sulfanyl]ethyl}carbamate] | 262 nM
Cn1c(=O)c2c(nc(N3CCNCC3)n2Cc2nnc(-c3ccc([N+](=O)[O-])cc3)o2)n(C)c1=O [Example 115, 1,3-dimethyl-7-{[5-(4-nitrophenyl)-1,3,4-oxadiazol-2-yl]methyl}-8-(piperazin-1-yl)-2,3,6,7-tetrahydro-1H-purine-2,6-dione] | 286 nM
Cn1c(=O)c2c(nc(N)n2Cc2nnc(-c3ccc(Cl)c(Cl)c3)o2)n(C)c1=O [Example 87, 8-amino-7-{[5-(3,4-dichlorophenyl)-1,3,4-oxadiazol-2-yl]methyl}-1,3-dimethyl-2,3,6,7-tetrahydro-1H-purine-2,6-dione] | 16.5 nM
Cn1c(=O)c2c(nc(N3CCNCC3)n2Cc2coc(-c3ccc(Cl)c(Cl)c3)n2)n(C)c1=O [Example 72, 7-{[2-(3,4-dichlorophenyl)-1,3-oxazol-4-yl]methyl}-1,3-dimethyl-8-(piperazin-1-yl)-2,3,6,7-tetrahydro-1H-purine-2,6-dione] | 21 nM
Cn1c(=O)c2c(nc(N3CCNC(=O)C3)n2Cc2nnc(-c3ccc(Cl)c(Cl)c3)o2)n(C)c1=O [Example 83, 7-{[5-(3,4-dichlorophenyl)-1,3,4-oxadiazol-2-yl]methyl}-1,3-dimethyl-8-(3-oxopiperazin-1-yl)-2,3,6,7-tetrahydro-1H-purine-2,6-dione] | 20.2 nM
Cn1c(=O)c2c(nc(Cl)n2Cc2cnc(-c3ccc(Cl)cc3)s2)n(C)c1=O [Example 75, 8-chloro-7-{[2-(4-chlorophenyl)-1,3-thiazol-5-yl]methyl}-1,3-dimethyl-2,3,6,7-tetrahydro-1H-purine-2,6-dione] | 239 nM
Cn1c(=O)c2c(nc(Cl)n2Cc2nnc(-c3ccc(C#N)cc3)o2)n(C)c1=O [Example 93, 4-{5-[(8-chloro-1,3-dimethyl-2,6-dioxo-2,3,6,7-tetrahydro-1H-purin-7-yl)methyl]-1,3,4-oxadiazol-2-yl}benzonitrile] | 918 nM

Source: patent US20210128566A1, “NOVEL FUNCTIONALIZED PURINE-2,6-DIONES AND THEIR USE IN MEDICINE” (THOMAS HELLEDAYS STIFTELSE FÖR MEDICINSK FORSKNING, priority 2017, published 2021)
